Measured values reported in PubChem BioAssay (NCI).
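In this assay, cells in 96-well plates receive the compound at five concentrations for 48 hours. Endpoints are linearly interpolated between the surrounding concentrations. At the TGI there is no net growth.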

How the values were obtained:
Assay in all cases: NCI tumour cell line growth inhibition, 48 h
[1] = tested on: RXF 393 renal
[2] = tested on: MDA-MB-435
[3] = tested on: UACC-62 melanoma
[4] = tested on: SK-MEL-2 melanoma
[5] = tested on: OVCAR-3 ovarian
[6] = tested on: NCI/ADR-RES ovarian
[7] = tested on: OVCAR-5 ovarian
[8] = tested on: MOLT-4 leukemia
[9] = tested on: K-562 leukemia
[10] = tested on: MDA-MB-231 breast

SMILES | TGI [1] | TGI [2] | TGI [3] | TGI [4] | TGI [5] | TGI [6] | TGI [7] | TGI [8] | TGI [9] | TGI [10]
C/C(=N/NC(=S)N1CCCCC1)c1ccccc1O | > 31.6 µM | > 31.6 µM | > 31.6 µM | > 31.6 µM | > 31.6 µM | > 31.6 µM | > 31.6 µM | > 31.6 µM | > 31.6 µM | > 100 µM
CCOc1ccc(N/C(=C(/C(Cl)=C(/Cl)N(CC)CC)[N+](=O)[O-])n2nnc3ccccc32)cc1 | 29.2 µM | 33.9 µM | 28.8 µM | 68.8 µM | 24.3 µM | 53.9 µM | > 100 µM | > 100 µM | > 100 µM | 25.2 µM
C[C@H](NC(=O)C(Cc1ccccc1)(Cc1ccc(O)cn1)NC(=O)c1ccccc1)c1ccccc1 (stereo not given in full) | 28.2 µM | 37.3 µM | 26.5 µM | 27.6 µM | 28.7 µM | 44.6 µM | 37.4 µM | 84.9 µM | > 100 µM | 29.4 µM
CCOP(=O)(/C=C\n1cc(C)c(=O)[nH]c1=O)OCC | > 100 µM | > 100 µM | > 100 µM | > 100 µM | > 100 µM | > 100 µM | > 100 µM | > 100 µM | > 100 µM | > 100 µM
CC(C)CNc1nc2ncnc(N)c2[nH]1 | > 100 µM | > 100 µM | > 100 µM | > 100 µM | > 100 µM | > 100 µM | > 100 µM | > 100 µM | > 100 µM | > 100 µM
ClCCCc1ccccc1C1=NCCc2ccccc21 | > 100 µM | > 100 µM | > 100 µM | > 100 µM | > 100 µM | > 100 µM | > 100 µM | > 100 µM | > 100 µM | > 100 µM
C=C[C@@H](C)[C@H](NS(=O)(=O)c1ccc(C)cc1)C(=O)OCC | > 100 µM | 47.2 µM | > 100 µM | > 100 µM | 43.1 µM | > 100 µM | > 100 µM | > 100 µM | > 100 µM | > 100 µM
COC(=O)C1CCC(=S)N1C(=O)c1ccccc1 (stereo not given) | > 100 µM | > 100 µM | > 100 µM | > 100 µM | > 100 µM | > 100 µM | > 100 µM | 90.3 µM | > 100 µM | > 100 µM
CC1(C)N/C(=C\C=O)C(C)(C)N1O | > 100 µM | > 100 µM | > 100 µM | > 100 µM | > 100 µM | > 100 µM | > 100 µM | > 100 µM | > 100 µM | > 100 µM
CN(C)c1ccc(/C(F)=C(F)/C(F)=C(F)/C(F)=C(\F)c2ccc(Br)cc2)cc1 | 38.7 µM | 10.7 µM | > 100 µM | > 100 µM | > 60.5 µM | 22.4 µM | > 100 µM | > 79.6 µM | > 100 µM | > 100 µM
CCCCCCCC/C=C\CCCCCCC/C=C1\C[C@](/C=C/C(=O)OC)(CO)OC1=O | 12.3 µM | 3.22 µM | 20.1 µM | 23.9 µM | 16.6 µM | 14.6 µM | 19.5 µM | 10.6 µM | 15.3 µM | 6.6 µM
Cc1ccc([S@](=O)c2occc2C=O)cc1 | 26.3 µM | 20.8 µM | 29.3 µM | 29.2 µM | 6.41 µM | > 61 µM | 34.7 µM | 4.16 µM | 4.25 µM | 24.2 µM
OCC(O)C(O)C(O)C(O)c1nc2ccc(Cl)cc2[nH]1 (stereo not given) | > 100 µM | > 100 µM | > 100 µM | > 100 µM | > 100 µM | > 100 µM | > 100 µM | > 100 µM | > 100 µM | > 100 µM
C=C(C(N)=O)c1ccc([N+](=O)[O-])o1 | 9.64 µM | 7.65 µM | 21.4 µM | 22.5 µM | 22.4 µM | > 100 µM | 35.2 µM | 18.8 µM | 26 µM | 29.8 µM
NC(=O)NNc1nc(-c2ccccc2)cs1 | > 100 µM | > 100 µM | > 100 µM | > 100 µM | > 100 µM | > 100 µM | > 100 µM | > 100 µM | > 100 µM | > 100 µM
CSCCC(N)C(=O)NCCNc1ccc(NCCNC(=O)C(N)CCSC)c2c1C(=O)c1ccccc1C2=O (stereo not given) | 4.73 µM | 4.59 µM | 2.51 µM | 7.59 µM | 9.44 µM | 16.2 µM | 5.61 µM | 4.23 µM | > 100 µM | 2.81 µM
N#CC1(C#N)NC(c2cccs2)C(C#N)(C#N)NC1c1cccs1 (stereo not given) | > 100 µM | > 100 µM | 57.9 µM | 50.5 µM | 67.8 µM | > 100 µM | 92.6 µM | 60.2 µM | 56.3 µM | > 100 µM
OC1(c2ccccc2)CCN(Cc2c[nH]c3ccccc23)CC1 | > 100 µM | > 100 µM | > 100 µM | 36.1 µM | > 100 µM | > 100 µM | > 100 µM | > 100 µM | > 100 µM | > 100 µM
Nc1ccc(S(=O)(=O)c2ccc(NCN3C(=O)NC(=O)C(=O)C3=O)cc2)cc1 | > 100 µM | > 100 µM | > 100 µM | > 100 µM | > 100 µM | > 100 µM | > 100 µM | > 100 µM | > 100 µM | > 100 µM
CC(NC(=O)C(NC(=O)CNC(=O)OC(C)(C)C)C(C)C)C(=O)Oc1c(Cl)c(Cl)c(Cl)c(Cl)c1Cl (stereo not given) | 44.6 µM | 61.3 µM | 34.8 µM | 30.3 µM | 28.5 µM | 39.1 µM | 31.6 µM | > 100 µM | > 100 µM | 42 µM
Cc1ccc(S(=O)(=O)n2c3ccc(Br)cc3c3nc4ccccc4nc32)cc1 | > 100 µM | > 100 µM | > 100 µM | > 100 µM | > 100 µM | > 100 µM | > 100 µM | > 100 µM | > 100 µM | > 100 µM
